Article PMC4076215, “Nickel(II) Complex of Polyhydroxybenzaldehyde N4-Thiosemicarbazone Exhibits Anti-Inflammatory Activity by Inhibiting NF-κB Transactivation” (PLoS ONE, 2014)
Entries after “also recorded” stand apart in the source; their conditions may differ.

Key:
RAW264.7 cells = assay: Cell proliferation (MTT) assay, RAW264.7; conditions: RAW264.7 cells, 48 h treatment
Experimental: A total number of 1.0×10^4 cells per well were seeded into a 96-well plate and incubated overnight at 37°C in 5% CO2. The next day, the cells were treated with a two-fold serial dilution of compounds. MTT assays were performed as described [27]. After 48 h, (4,5-dimethylthiazol-2-yl-2,5-diphenyltetrazoliumbromide) was added at 2 mg/ml. After 3 h of incubation at 37°C in 5% CO2, DMSO was added to dissolve the formazan crystals. The plates were then read in Chameleon multitechnology microplate reader (Hidex, Turku, Finland) at 570 nm absorbance. The ratio of the absorbance of treated cells to the absorbance of DMSO-treated control cells was determined as percentage cell viability.
To examine whether synthesized Ni(II) thiosemicarbazone ligands or Ni(II)-phosphine complexes were cytotoxic, we treated RAW264.7 (leukemic monocyte macrophage) and HeLa S3 (cervical adenocarcinoma) cells with these compounds for 48 h. The cell viability was determined with MTT assays [33].

[1] = Renal functional test (serum) after oral dosing; assay type: in vivo, C57BL/6 mice; conditions: after two weeks
Experimental: Renal functional test. C57BL/6 mice at age 8-12 weeks old were administrated orally with control PBS or
with various concentrations (125 mg/kg, 250 mg/kg and 500 mg/kg) of complex 5. n= 6 (3 male and 3
female mice)/group. After two weeks, sera were collected from the mice for renal functional test.

COX-2 expression = assay: TNF-induced COX-2 expression; assay type: cell-based; conditions: Figure S1
Experimental: In addition, we investigated the effect of complex 5 on NF-κB-mediated gene expression in response to TNFα stimulation in human HeLa S3 cells. We treated HeLa S3 cells with complex 5 for 4 h before TNFα treatment for 4 h.
Supplementary file pone.0100933.s001.pdf: Figure S1 Complex 5 inhibits TNF-induced COX2 expression. (PDF) Click here for additional data file.

[2] = system: carrageenan-induced paw edema; assay: Carrageenan-induced paw edema mouse model; assay type: in vivo, C57BL/6 mice; conditions: for Paw size: 1 h after carrageenan, control 7.3±0.8 mm
Experimental: Male C57BL/6 mice at age 8–12 weeks old were from Jackson Laboratories, USA. Mice were administrated intraperitoneally (i.p.) with two different doses of complex 5 (2.5 mg/kg and 5 mg/kg). Negative control groups were i.p. injected with 200 µl of vehicle (50% v/v ethanol). A standard drug 2 mg/kg dexamethasone (Sigma) was included in the study. After 1 h, paw edema was induced by injecting 50 µl of 1% carrageenan (Sigma) through the plantar tissue at the right hind paw of each mouse. The thickness of right paw of each mouse was measured at 1, 3 and 5 h after carrageenan was administered. Four animals per group were tested (n = 4). Quantification of right hind paw thickness were analyzed for statistical significance using Student's t-test. Animals were housed in individually ventilated cages in specific pathogen free facility, Animal Experimental Unit, University of Malaya. All efforts were made to minimize animal suffering and the number of animals used. At the end of the experiment, mice were euthanized by CO2 asphyxiation. Animal work was approved by the Faculty of Medicine Animal Care and Use Committee (FOMIACUC) at University of Malaya and reported according to ARRIVE guidelines.
To test the in vivo inhibitory effect of complex 5 on inflammation, we administrated two doses of complex 5 (2.5 mg/kg and 5.0 mg/kg) into C57BL/6 wild type mice through i.p. injection. For a positive control, we performed i.p. injection of 2.0 mg/kg dexamethasone into the mice. After 1 h, paw edema in the mice was induced by injecting 1% carrageenan to the right hind paw. The paw sizes were measured at 1, 3 and 5 h after edema induction. The edema formation at the mice paw was due to inflammatory response causing the accumulation of histamine, serotonin, prostaglandin and other secreted inflammatory mediators.
Male C57BL/6 mice at age of 8-12 weeks old were non-injected or injected i.p. with 2.5 mg/kg or 5.0 mg/kg complex 5, whereas for positive controls, mice were injected i.p. with 2.0 mg/kg dexamethasone. After 1 h, acute inflammation was induced in the right hind paw of each mice by injecting 50 µl of carrageenan. The size of the paw were measured after (A) 1 h or, (B) 1, 3 and 5 h post carrageenan injection. Shown were mean ±SD (n = 4). Statistical analysis was performed with Student's t-test.

[3] = system: NF-κB target genes TNFα, IFNβ, IL6 and IP10; assay: Quantitative PCR of NF-κB target genes, LPS-treated RAW264.7; assay type: cell-based; conditions: RAW264.7, pretreated 4 h, LPS 4 h
Experimental: Cells pretreated with or without of complex 5 for 4 h were incubated with LPS or TNFα for 4 h. Total RNAs were isolated with Thermo Scientific GeneJET RNA Purification Kit. Complimentary DNAs were synthesized and Quantitative PCR was performed with 2× SYBR Green PCR Master mix (Thermo Scientific) and run on the Bio-Rad CFX 96 Real-Time PCR System. All data were then normalized to L32. The sequences of the primers are listed in Supporting Information Table S1.
To test if complex 5 inhibits NF-κB-mediated gene expression, we cultured RAW264.7 cells with or without complex 5 for 4 h before treating the cells with LPS for 4 h. Cells were collected for RNA isolation and real time PCR analysis (Figure 6A).
Figure 6 Complex 5 inhibits NF-κB transactivation activity. (A) RAW264.7 cells pretreated with or without complex 5 for 4 h were treated with LPS for 4 h. The expression of TNFα, IFNβ, IL6 and IP10 were measured by QPCR. (B) HeLa S3 cells pretreated with or without complex 5 for 4 h were stimulated with TNFα for 4 h. The expression of TNFα, IL8, CCL5, ICAM1, IL6 and A20 were measured by QPCR. (C) K562 or KCL22 cells pretreated with or without 50 µg/ml of complex 5 for 4 h were stimulated with 100 ng/ml TNFα for 2 h. The expression of IL8 and TNF were measured by QPCR. […] Cell lysates were prepared and the luciferase activities were measured. […]

NC1=[S+][Ni-2]2([P+](c3ccccc3)(c3ccccc3)c3ccccc3)[O]c3c(O)cccc3C=[N+]2N1.[Cl-] [complex 5, {2-[(2-Carbamothiolylhydrazin-1-ylidene-[kappa]2N1,S)methyl]-6-hydroxyphenolato-[kappa]O1}(triphenylphosphine-[kappa]P)nickel(II) chloride]
IC50 (cell viability, MTT) (RAW264.7 cells): 28.63 ± 2.24 µg/mL | Anion Gap ([1]; 125 mg/kg oral): 24.80 mmol/L | CO2 ([1]; 125 mg/kg oral): 18.18 mmol/L | Chlorine ([1]; 125 mg/kg oral): 110.80 mmol/L | Creatinine ([1]; 125 mg/kg oral): < 9 µmol/L | Potassium ([1]; 125 mg/kg oral): 6.68 ± 1.12 mmol/L | Sodium ([1]; 125 mg/kg oral): 147.00 mmol/L | Urea ([1]; 125 mg/kg oral): 10.72 mmol/L | Anion Gap ([1]; 250 mg/kg oral): 26.67 mmol/L | CO2 ([1]; 250 mg/kg oral): 16.36 mmol/L | Chlorine ([1]; 250 mg/kg oral): 111.00 mmol/L | Creatinine ([1]; 250 mg/kg oral): < 9 µmol/L | Potassium ([1]; 250 mg/kg oral): 6.50 ± 0.52 mmol/L | Sodium ([1]; 250 mg/kg oral): 147.50 mmol/L | Urea ([1]; 250 mg/kg oral): 9.96 mmol/L | Anion Gap ([1]; 500 mg/kg oral): 27.00 mmol/L | CO2 ([1]; 500 mg/kg oral): 16.14 mmol/L | Chlorine ([1]; 500 mg/kg oral): 110.83 mmol/L | Creatinine ([1]; 500 mg/kg oral): < 9 µmol/L | Potassium ([1]; 500 mg/kg oral): 5.83 ± 0.74 mmol/L | Sodium ([1]; 500 mg/kg oral): 148.33 mmol/L | Urea ([1]; 500 mg/kg oral): 9.56 mmol/L | TNF-induced expression of COX-2 (COX-2 expression): inhibited TNF-induced expression of COX-2 in a dose dependent manner | Paw size ([2]; 2.5 mg/kg i.p.): 5.8±0.4 mm | Paw edema formation ([2]; 5.0 mg/kg i.p.): obvious reduction; also recorded: effectively reduced | Paw size ([2]; 5.0 mg/kg i.p.): 5.0±0.2 mm | Paw edema compared to untreated mice ([2]; 3 and 5 h post carrageenan): further reduced | LPS-induced expression of TNFα, IFNβ, IL6 and IP10 (QPCR) [3]: abolished
